Drawing on publication doi:10.1101/2023.03.15.532718v2, “Bacterial hemophilin homologs and their specific type eleven secretor proteins have conserved roles in heme capture and are diversifying as a family” (biorxiv, 2023), this text covers Kd for two compounds.

For one assay, the target named is T1, BSA (Bos taurus, UniProt P02769).
T1 construct: gene ALB
Nature of the assay: UV-visible absorption titration, […] fit. It is filed as binding. The following applies: 20 mM Tris-HCl pH 8.0, 21 °C, brackets 95% confidence interval.

Another assay concerns the target T2, HrpC (Xn HrpC) (Xenorhabdus nematophila, UniProt D3VG73).
T2 construct: gene XNC1_0075; residues 23-247, signal peptide omitted, His6 tag cut by TEV leaving N-terminal Gly-His-Met, E. coli Rosetta-2, apo-protein by RP-HPLC
It is filed as binding. The following applies: 20 mM Tris-HCl pH 8.0, 21 °C, brackets 95% confidence interval.

A further assay deals with T3, CrpC (Xc CrpC) (Xenorhabdus cabanillasii, UniProt A0A3D9UFK6).
T3 construct: gene BDD26_3141; residues 23-238, signal peptide omitted, His6 tag cut by TEV leaving N-terminal Gly-His-Met, E. coli Rosetta-2, apo as purified; HGB2490 is the authors' collection number
T3 sequence (A0A3D9UFK6 entry or part of it): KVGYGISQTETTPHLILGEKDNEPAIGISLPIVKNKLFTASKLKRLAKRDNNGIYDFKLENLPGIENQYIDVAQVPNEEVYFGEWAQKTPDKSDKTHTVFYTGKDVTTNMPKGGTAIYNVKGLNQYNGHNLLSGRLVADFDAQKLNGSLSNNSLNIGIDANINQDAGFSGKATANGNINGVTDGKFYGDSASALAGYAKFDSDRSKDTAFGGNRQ
It is filed as binding. The following applies: 20 mM Tris-HCl pH 8.0, 21 °C, brackets 95% confidence interval.

For another assay, the target named is T4, Hpl (hemophilin, Hh Hpl) (Haemophilus haemolyticus, UniProt A0A0M3G7Q5).
T4 construct: gene AAX18_03525; signal peptide omitted, expressed in E. coli cytoplasm as previously described, apo-protein by acid acetone; strain BW1 printed for the secretion clone only
T4 sequence (A0A0M3G7Q5 entry or part of it): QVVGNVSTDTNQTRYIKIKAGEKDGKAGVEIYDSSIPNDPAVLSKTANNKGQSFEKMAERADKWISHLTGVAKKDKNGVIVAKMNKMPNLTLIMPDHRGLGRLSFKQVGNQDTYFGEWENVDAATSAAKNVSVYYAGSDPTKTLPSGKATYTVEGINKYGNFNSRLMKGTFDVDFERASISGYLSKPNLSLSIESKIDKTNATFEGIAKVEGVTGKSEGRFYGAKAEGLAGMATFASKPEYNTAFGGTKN
Nature of the assay: biochemical. It is filed as binding.

Another assay concerns the target T5, Ab HphA (Acinetobacter baumannii, UniProt A0A059ZRB8).
T5 construct: signal peptide omitted, expressed in E. coli cytoplasm, apo-protein
Nature of the assay: biochemical. Further details: UV-visible absorbance titration of porphyrin with protein, 1:1 fit with ligand depletion, 21 C pH 8.0. As for the experimental part:
Hemin binding measurements in absorbance mode were made by successive additions of apo-protein (∼0.4 mM stock) into porphyrin solution (1.5 µM) in 20 mM Tris-HCl, pH 8 at 21°C. All binding experiments were performed at 21°C. Data were fitted to a 1:1 binding model accounting for ligand depletion, where Fobs is fluorescence signal, F0 is the starting [drawing 1] fluorescence, Fsat is a scaling factor for fluorescence at saturation, L and M are the ligand and macromolecule concentrations, respectively, and Kd is the equilibrium dissociation constant. Data were fitted using GNUPLOT version 4.6. […] Here, SSbest is the sum-of-squares for the fit with all parameters floated; Dfn and Dfd are the degrees of freedom in the numerator and denominator, respectively, for calculation of F. The Kd value was then fixed at values above or below the best-fit Kd until fits exceeded the threshold sum-of-squares. To determine a lower limit of Kd that we could expect to fit from absorbance measurements we simulated data for different Kd values with Gaussian noise added to give fits with SSbest that matched our experimental data. […] Titration of hemophilin homologues with hemin. […] A) Spectra recorded after addition of H. haemolyticus Hpl to a final concentration in the range 0.3–4.5 µM. B) Spectra recorded after addition of A. baumannii HphA to a final concentration in the range 0.4–3.8 µM. […]

Where two headings read alike, the source gives them in different places. Some results are limits rather than exact numbers.

T2 sequence (D3VG73 entry or part of it): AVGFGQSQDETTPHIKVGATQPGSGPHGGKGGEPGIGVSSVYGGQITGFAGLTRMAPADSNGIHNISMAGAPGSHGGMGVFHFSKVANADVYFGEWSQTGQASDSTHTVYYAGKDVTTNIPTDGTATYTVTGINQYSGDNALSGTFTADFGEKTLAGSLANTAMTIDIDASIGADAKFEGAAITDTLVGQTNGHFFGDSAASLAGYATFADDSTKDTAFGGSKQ
T1 sequence (P02769 25-607): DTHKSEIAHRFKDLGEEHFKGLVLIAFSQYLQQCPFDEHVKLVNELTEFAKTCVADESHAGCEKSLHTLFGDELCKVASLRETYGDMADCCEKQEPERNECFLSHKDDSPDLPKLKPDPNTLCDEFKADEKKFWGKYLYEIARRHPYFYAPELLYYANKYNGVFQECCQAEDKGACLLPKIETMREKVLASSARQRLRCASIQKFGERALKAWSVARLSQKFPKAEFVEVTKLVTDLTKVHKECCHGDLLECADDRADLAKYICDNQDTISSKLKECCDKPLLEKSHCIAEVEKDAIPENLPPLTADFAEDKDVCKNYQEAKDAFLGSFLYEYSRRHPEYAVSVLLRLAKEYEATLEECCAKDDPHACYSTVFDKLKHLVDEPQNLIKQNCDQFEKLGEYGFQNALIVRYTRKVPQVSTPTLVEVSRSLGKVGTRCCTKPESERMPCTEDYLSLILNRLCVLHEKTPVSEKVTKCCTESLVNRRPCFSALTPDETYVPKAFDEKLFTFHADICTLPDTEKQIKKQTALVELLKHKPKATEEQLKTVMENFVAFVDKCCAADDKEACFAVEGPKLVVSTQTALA
T5 sequence (A0A059ZRB8 whole entry): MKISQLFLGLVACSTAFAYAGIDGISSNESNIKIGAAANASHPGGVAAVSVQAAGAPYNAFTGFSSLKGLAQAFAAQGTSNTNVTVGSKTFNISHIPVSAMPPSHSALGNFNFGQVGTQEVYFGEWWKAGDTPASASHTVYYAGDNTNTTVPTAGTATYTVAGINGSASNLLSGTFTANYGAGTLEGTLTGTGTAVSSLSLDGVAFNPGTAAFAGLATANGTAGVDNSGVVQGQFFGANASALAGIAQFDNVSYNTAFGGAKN

Regarding `C=CC1=C(C)C2=Cc3c(C=C)c(C)c4[n]3[Fe]([Cl])[n]3c(c(C)c(CCC(=O)O)c3=CC3=NC(=C4)C(C)=C3CCC(=O)O)=CC1=N2` [hemin], the Kd on BSA (apparent Kd) was 2 (1–5) × 10^3 nM; at HrpC (Xn HrpC) (b21 prints both nM and µM for this value, table nM), 20 nM; on CrpC (Xc CrpC) (apparent Kd), 5 (1–9) × 10^3 nM.
Take `C=CC1=C(C)c2cc3[nH]c(cc4nc(cc5[nH]c(cc1n2)c(C)c5CCC(=O)O)C(CCC(=O)O)=C4C)c(C)c3C=C` [PPIX]: the Kd at BSA was 11 (6–14) × 10^3 nM; at HrpC (Xn HrpC) it was 20 nM; at Hpl (hemophilin, Hh Hpl), 70 nM; on Ab HphA it was at most 15 nM; on CrpC (Xc CrpC), 7 (3–11) × 10^3 nM.
